pIC50: −log10 of the molar value.
Columns and labels:
[1] = target: Adenosine A2a (ADORA2A) receptor (Homo sapiens (Human), UniProt P29274); assay: ADORA2A Receptor Binding Assay; conditions: radioligand binding, membrane stock
Procedure, shortened: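 Test compounds incubated with A2a receptor membranes and a ³H-labelled radioligand for 2 hours at room temperature, then filtered through PEI-presoaked GF/C plates and washed. Filter-bound ³H counted by scintillation; % inhibition calculated from background-subtracted signal relative to high control.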

[2] = target: Adenosine A2B (ADORA2B) receptor (Homo sapiens (Human), UniProt P29275); assay: ADORA2B Receptor Binding Assay; conditions: radioligand binding, membrane stock
Procedure, shortened: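 Radioligand competition binding on human A2B receptor membranes, 1 h at room temperature, then filtration through BSA-presoaked GF/C filters and ³H counting by scintillation. Inhibition expressed as % of high control after background subtraction.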

Sequence of Adenosine A2a (ADORA2A) receptor (P29274 whole entry): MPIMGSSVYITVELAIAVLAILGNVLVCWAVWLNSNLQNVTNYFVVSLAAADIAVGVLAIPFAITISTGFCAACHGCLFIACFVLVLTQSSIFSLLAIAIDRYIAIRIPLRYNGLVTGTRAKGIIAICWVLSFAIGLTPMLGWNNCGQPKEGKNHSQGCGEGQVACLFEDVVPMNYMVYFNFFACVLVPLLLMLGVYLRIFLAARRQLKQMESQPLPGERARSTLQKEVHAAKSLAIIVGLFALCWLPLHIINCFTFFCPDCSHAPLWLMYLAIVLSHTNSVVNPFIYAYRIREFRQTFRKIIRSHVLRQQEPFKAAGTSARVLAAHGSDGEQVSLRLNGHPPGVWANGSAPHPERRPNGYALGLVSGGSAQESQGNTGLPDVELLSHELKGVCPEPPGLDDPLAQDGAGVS
Sequence of Adenosine A2B (ADORA2B) receptor (P29275 whole entry): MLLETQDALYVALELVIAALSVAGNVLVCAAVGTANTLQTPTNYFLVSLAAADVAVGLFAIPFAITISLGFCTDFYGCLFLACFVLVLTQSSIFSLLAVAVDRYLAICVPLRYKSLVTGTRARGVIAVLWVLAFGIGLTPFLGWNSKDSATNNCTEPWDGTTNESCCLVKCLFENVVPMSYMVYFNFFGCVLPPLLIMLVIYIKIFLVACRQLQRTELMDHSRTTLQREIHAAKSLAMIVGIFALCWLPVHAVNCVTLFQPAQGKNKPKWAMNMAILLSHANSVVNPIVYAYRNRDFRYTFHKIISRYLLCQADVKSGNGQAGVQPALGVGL

pIC50 [1]	pIC50 [2]	Structure (SMILES)
> 8.00	7.00 to 8.00	Nc1nc(-c2ccccc2)n2nc(CF)nc2c1Cl [Compound 138, 8-chloro-2-(fluoromethyl)-5-phenyl-[1,2,4]triazolo[1,5-c]pyrimidin-7-amine]
> 8.00	> 8.00	Cc1nc2c3cc(C)[nH]c3nc(-c3ccc(C)o3)n2n1 [Compound 45, 4,11-dimethyl-7-(5-methylfuran-2-yl)-3,5,6,8,10-pentazatricyclo[7.3.0.0^2,6]dodeca-1(9),2,4,7,11-pentaene]
< 6.00	< 6.00	CC(=O)Nc1cc2nc(C)nn2c(-c2cnn(C)c2)n1 [Compound 71, N-[2-methyl-5-(1-methylpyrazol-4-yl)-[1,2,4]triazolo[1,5-c]pyrimidin-7-yl]acetamide]
7.00 to 8.00	6.00 to 7.00	Cc1ccc(-c2nc3c(c4nc(C(C)C)nn24)C(C)(C)CN3)o1 [Compound 36, 12,12-dimethyl-7-(5-methylfuran-2-yl)-4-propan-2-yl-3,5,6,8,10-pentazatricyclo[7.3.0.0^2,6]dodeca-1(9),2,4,7-tetraene]
> 8.00	7.00 to 8.00	CC(C)c1cn2cc(NC(=O)C3CC3)nc(-c3ccco3)c2n1 [Compound 212, N-[8-(furan-2-yl)-2-propan-2-ylimidazo[1,2-a]pyrazin-6-yl]cyclopropanecarboxamide]
6.00 to 7.00	6.00 to 7.00	Cc1nc2c(C(N)=O)c(N)nc(-c3ccc(C)o3)n2n1 [Compound 32, 7-amino-2-methyl-5-(5-methylfuran-2-yl)-[1,2,4]triazolo[1,5-c]pyrimidine-8-carboxamide]
7.00 to 8.00	6.00 to 7.00	Cc1nc2cc(NC(=O)N3CCCC3)nc(-c3ccco3)n2n1 [Compound 103, N-[5-(furan-2-yl)-2-methyl-[1,2,4]triazolo[1,5-c]pyrimidin-7-yl]pyrrolidine-1-carboxamide]
> 8.00	> 8.00	CC(=O)Nc1cc2nc(CF)nn2c(-c2ccc(C)o2)n1 [Compound 127, N-[2-(fluoromethyl)-5-(5-methylfuran-2-yl)-[1,2,4]triazolo[1,5-c]pyrimidin-7-yl]acetamide]
> 8.00	7.00 to 8.00	Cc1ccc(-c2nc(NC(=O)C3CC3)cc3nc(C4COC4)nn23)o1 [Compound 110, N-[5-(5-methylfuran-2-yl)-2-(oxetan-3-yl)-[1,2,4]triazolo[1,5-c]pyrimidin-7-yl]cyclopropanecarboxamide]
7.00 to 8.00	6.00 to 7.00	Cc1nc2cc(NC(=O)C3CC3)nc(-c3cccc(C#N)c3)n2n1 [Compound 53, N-[5-(3-cyanophenyl)-2-methyl-[1,2,4]triazolo[1,5-c]pyrimidin-7-yl]cyclopropanecarboxamide]
7.00 to 8.00	6.00 to 7.00	Cc1nc2c(Br)c(N)nc(-c3ccc(F)cc3)n2n1 [Compound 83, 8-bromo-5-(4-fluorophenyl)-2-methyl-[1,2,4]triazolo[1,5-c]pyrimidin-7-amine]
> 8.00	7.00 to 8.00	Cc1cc2c(nc(-c3ccco3)n3nc(C(C)C)nc23)[nH]1 [Compound 81, 7-(furan-2-yl)-11-methyl-4-propan-2-yl-3,5,6,8,10-pentazatricyclo[7.3.0.0^2,6]dodeca-1(9),2,4,7,11-pentaene]
< 6.00	< 6.00	Cc1nc2cc(N)nc(-c3ccc(S(C)(=O)=O)cc3)n2n1 [Compound 106, 2-methyl-5-(4-methylsulfonylphenyl)-[1,2,4]triazolo[1,5-c]pyrimidin-7-amine]
> 8.00	7.00 to 8.00	Cc1nc2cc(NC(=O)NC(C)C)nc(-c3ccco3)n2n1 [Compound 163, 1-[5-(furan-2-yl)-2-methyl-[1,2,4]triazolo[1,5-c]pyrimidin-7-yl]-3-propan-2-ylurea]
7.00 to 8.00	7.00 to 8.00	CNC(=O)Nc1cn2cc(C)nc2c(-c2ccco2)n1 [Compound 217, 1-[8-(furan-2-yl)-2-methylimidazo[1,2-a]pyrazin-6-yl]-3-methylurea]
> 8.00	7.00 to 8.00	Cc1nc2c(Cl)c(N)nc(-c3cccc(F)c3)n2n1 [Compound 146, 8-chloro-5-(3-fluorophenyl)-2-methyl-[1,2,4]triazolo[1,5-c]pyrimidin-7-amine]
> 8.00	> 8.00	Cc1nc2c(-c3ccccc3)nc(N)c(Cl)n2n1 [Compound 176, 5-chloro-2-methyl-8-phenyl-[1,2,4]triazolo[1,5-a]pyrazin-6-amine]
> 8.00	> 8.00	Cc1ccc(-c2nc(NC(=O)C3CC3)cn3nc(CF)nc23)o1 [Compound 190, N-[2-(fluoromethyl)-8-(5-methylfuran-2-yl)-[1,2,4]triazolo[1,5-a]pyrazin-6-yl]cyclopropanecarboxamide]

pIC50 [1]	pIC50 [2]	Structure (SMILES)
< 6.00	< 6.00	Cc1nc2cc(NC(=O)OC(C)(C)C)nc(-c3ccc(S(=O)(=O)N(C)C)cc3)n2n1 [Compound 118, tert-butyl N-[5-[4-(dimethylsulfamoyl)phenyl]-2-methyl-[1,2,4]triazolo[1,5-c]pyrimidin-7-yl]carbamate]
7.00 to 8.00	7.00 to 8.00	Cc1nc2c(Br)c(N)nc(-c3ccccc3)n2n1 [Compound 89, 8-bromo-2-methyl-5-phenyl-[1,2,4]triazolo[1,5-c]pyrimidin-7-amine]
< 6.00	< 6.00	CC(=O)c1cccc(-c2nc(NC(=O)OC(C)(C)C)cc3nc(C)nn23)c1 [Compound 94, tert-butyl N-[5-(3-acetylphenyl)-2-methyl-[1,2,4]triazolo[1,5-c]pyrimidin-7-yl]carbamate]
7.00 to 8.00	< 6.00	Cc1nc2cc(NC(=O)C3CC3)nc(-c3ccc(C(C)(C)C)o3)n2n1 [Compound 43, N-[5-(5-tert-butylfuran-2-yl)-2-methyl-[1,2,4]triazolo[1,5-c]pyrimidin-7-yl]cyclopropanecarboxamide]
> 8.00	> 8.00	CC(C)c1nc2cc(NC(=O)C3CC3)nc(-c3ccco3)n2n1 [Compound 58, N-[5-(furan-2-yl)-2-propan-2-yl-[1,2,4]triazolo[1,5-c]pyrimidin-7-yl]cyclopropanecarboxamide]
> 8.00	> 8.00	Cc1ccc(-c2nc(NC(=O)C3CC3)cn3nc(Br)nc23)o1 [Compound 188, N-[2-bromo-8-(5-methylfuran-2-yl)-[1,2,4]triazolo[1,5-a]pyrazin-6-yl]cyclopropanecarboxamide]
< 6.00	< 6.00	Cc1nc2cc(NC(=O)C3CC3)nc(-c3ccc(S(=O)(=O)O)cc3)n2n1 [Compound 125, 4-[7-(cyclopropanecarbonylamino)-2-methyl-[1,2,4]triazolo[1,5-c]pyrimidin-5-yl]benzenesulfonic acid]
< 6.00	< 6.00	Cc1nc2cc(N)nc(-c3ccc(S(=O)(=O)N(C)C)cc3)n2n1 [Compound 119, 4-(7-amino-2-methyl-[1,2,4]triazolo[1,5-c]pyrimidin-5-yl)-N,N-dimethylbenzenesulfonamide]
7.00 to 8.00	7.00 to 8.00	Cc1ccc(-c2nc(NC(=O)C3CC3)cn3c(C)cnc23)o1 [Compound 196, N-[3-methyl-8-(5-methylfuran-2-yl)imidazo[1,2-a]pyrazin-6-yl]cyclopropanecarboxamide]
> 8.00	> 8.00	CC(C)c1nc2c(-c3ccccc3)nc(N)c(Cl)n2n1 [Compound 177, 5-chloro-8-phenyl-2-propan-2-yl-[1,2,4]triazolo[1,5-a]pyrazin-6-amine]
7.00 to 8.00	6.00 to 7.00	CCCC(=O)Nc1cn2cc(C)nc2c(-c2ccco2)n1 [Compound 222, N-[8-(furan-2-yl)-2-methylimidazo[1,2-a]pyrazin-6-yl]butanamide]
7.00 to 8.00	6.00 to 7.00	Cc1nc2cc(N)nc(-c3cccc(F)c3)n2n1 [Compound 142, 5-(3-fluorophenyl)-2-methyl-[1,2,4]triazolo[1,5-c]pyrimidin-7-amine]
> 8.00	7.00 to 8.00	Cc1ccc(-c2nc(NC(=O)C3CC3)cc3nc(-c4ccco4)nn23)o1 [Compound 67, N-[2-(furan-2-yl)-5-(5-methylfuran-2-yl)-[1,2,4]triazolo[1,5-c]pyrimidin-7-yl]cyclopropanecarboxamide]
< 6.00	< 6.00	Cc1nc2c(Cl)c(N(C)C)nc(-c3ccc(C)o3)n2n1 [Compound 24, 8-chloro-N,N,2-trimethyl-5-(5-methylfuran-2-yl)-[1,2,4]triazolo[1,5-c]pyrimidin-7-amine]
> 8.00	7.00 to 8.00	Cc1nc2cc(NC(=O)NCCN3CCCC3)nc(-c3ccco3)n2n1 [Compound 157, 1-[5-(furan-2-yl)-2-methyl-[1,2,4]triazolo[1,5-c]pyrimidin-7-yl]-3-(2-pyrrolidin-1-ylethyl)urea]
6.00 to 7.00	< 6.00	Cc1cn2cc(NS(C)(=O)=O)nc(-c3ccco3)c2n1 [Compound 224, N-[8-(furan-2-yl)-2-methylimidazo[1,2-a]pyrazin-6-yl]methanesulfonamide]
7.00 to 8.00	< 6.00	Cc1ccc(-c2nc(NC(=O)C3CC3)cc3nc(C4CNC4)nn23)o1 [Compound 164, N-[2-(azetidin-3-yl)-5-(5-methylfuran-2-yl)-[1,2,4]triazolo[1,5-c]pyrimidin-7-yl]cyclopropanecarboxamide]
> 8.00	7.00 to 8.00	Cc1nc2c(F)c(N)nc(-c3ccc(C)o3)n2n1 [Compound 30, 8-fluoro-2-methyl-5-(5-methylfuran-2-yl)-[1,2,4]triazolo[1,5-c]pyrimidin-7-amine]

Structure (SMILES)	pIC50 [1]	pIC50 [2]
Cc1nc2cc(NC(=O)CF)nc(-c3ccco3)n2n1 [Compound 145, 2-fluoro-N-[5-(furan-2-yl)-2-methyl-[1,2,4]triazolo[1,5-c]pyrimidin-7-yl]acetamide]	7.00 to 8.00	7.00 to 8.00

Source: US11718622B2, “Heterocyclic adenosine receptor antagonists” (Exelixis, Inc., priority 2020, dated 2023)
